Drawing on ChEMBL document CHEMBL1156557, “Structure and biosynthesis of norneolambertellin produced by Lambertella sp. 1346” (Bioorg Med Chem Lett, 2008), this text covers Activity for one compound.

Activity calls are given as the source filed them. No cut-off for these calls is given here.

In one assay the test system is Monilinia fructigena. Put plainly: Antifungal activity against Monilinia fructigena. Type of assay: functional, organism-based.
The subject of another assay is Bipolaris oryzae. Put plainly: Antifungal activity against Cochliobolus miyabeanus at 50 ug/ml. Type of assay: functional, organism-based.

For the compound `Cc1cc2c(=O)oc3c(O)cccc3c2oc1=O`, in the assay with Monilinia fructigena, the outcome was inactive. Besides, the outcome in the assay on Bipolaris oryzae was Active.
